The target in this assay is T1, human liver glycogen phosphorylase a (HLGPa) (Homo sapiens, UniProt P06737).
T1 construct: creating a full-length cDNA fused at the 5′ end to codons for methionine-glycine-alanine-histidine; 6xHis tag (leader Met-Gly-Ala-His6-Gly-Gly) (N); made in house; host or cells: E. coli (bacterial expression plasmid pTXK1007LTev)
T1 sequence (P06737 2-847 limits assumed): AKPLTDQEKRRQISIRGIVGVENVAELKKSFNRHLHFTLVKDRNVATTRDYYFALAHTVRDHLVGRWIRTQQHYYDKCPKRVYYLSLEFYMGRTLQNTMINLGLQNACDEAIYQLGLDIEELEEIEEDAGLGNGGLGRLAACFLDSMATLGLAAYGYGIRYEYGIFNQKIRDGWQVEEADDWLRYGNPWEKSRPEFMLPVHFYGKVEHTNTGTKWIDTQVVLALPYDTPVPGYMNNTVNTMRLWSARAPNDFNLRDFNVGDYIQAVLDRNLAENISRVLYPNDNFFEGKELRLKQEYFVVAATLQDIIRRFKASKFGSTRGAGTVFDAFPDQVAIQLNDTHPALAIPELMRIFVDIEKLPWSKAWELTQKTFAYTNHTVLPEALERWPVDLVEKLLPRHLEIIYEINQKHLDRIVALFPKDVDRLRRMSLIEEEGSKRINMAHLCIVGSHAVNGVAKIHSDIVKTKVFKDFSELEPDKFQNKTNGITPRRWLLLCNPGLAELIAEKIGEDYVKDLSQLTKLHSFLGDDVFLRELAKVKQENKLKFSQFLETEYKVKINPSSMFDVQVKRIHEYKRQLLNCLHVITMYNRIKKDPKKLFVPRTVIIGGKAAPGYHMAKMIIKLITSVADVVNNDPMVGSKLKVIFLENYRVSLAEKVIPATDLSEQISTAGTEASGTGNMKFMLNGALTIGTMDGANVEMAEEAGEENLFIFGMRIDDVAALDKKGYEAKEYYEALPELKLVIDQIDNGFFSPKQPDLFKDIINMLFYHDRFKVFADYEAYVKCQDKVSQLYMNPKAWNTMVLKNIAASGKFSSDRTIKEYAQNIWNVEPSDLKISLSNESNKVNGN
Description: Human liver glycogen phosphorylase a enzymatic activity assay (coupled, fluorescent resorufin readout, with and without 10 mM glucose). The format is biochemical.

[1] abbreviates: human liver glycogen phosphorylase a, table does not say whether with or without 10 mM glucose.
[2] abbreviates: human liver glycogen phosphorylase a enzymatic activity assay.

Where a name gives a salt, the structure may show the parent alone.

`COc1ccc(-c2ccc(C(=O)N[C@H](C(=O)O)C3CCCCC3)c(NC(=O)Nc3c(C)cc(C)cc3C)c2)cc1F` [Example 237, (2S)-Cyclohexyl({[3′-fluoro-4′-(methyloxy)-3-({[(2,4,6-trimethylphenyl)amino]carbonyl}amino)-4-biphenylyl]carbonyl}amino)ethanoic acid]: the IC50 under setting [1] amounted to 0.02 µM. Still for that read-out and setting: the value for `COc1ccc(-c2ccc(C(=O)N[C@H](C(=O)O)[C@@H](C)OC(C)(C)C)c(NC(=O)Nc3c(C)cc(C)cc3C)c2)cc1F` [Example 235, O-(1,1-Dimethylethyl)-N-{[3′-fluoro-4′-(methyloxy)-3-({[(2,4,6-trimethylphenyl)amino]carbonyl}amino)-4-biphenylyl]carbonyl}-L-threonine] was 0.013 µM. Compound `COc1ccc(-c2ccc(C(=O)N[C@@H](CC(=O)O)C(=O)O)c(NC(=O)Nc3c(C)cc(C)cc3C)c2)cc1` [Example 362, N-{[4′-(methyloxy)-3-({[(2,4,6-trimethylphenyl)amino]carbonyl}amino)-4-biphenylyl]carbonyl}-L-aspartic acid] came in with an IC50 under setting [1] of 0.006 µM. Under setting [2], `Cc1cccc(Cl)c1NC(=O)Nc1cc2ccccc2cc1C(=O)N[C@@H](CCC(N)=O)C(=O)O` [Example 41, N-[3-({[(2-chloro-6-methylphenyl)amino]carbonyl}amino)-2-naphthoyl]-L-glutamine] showed an IC50 of 1.32 µM.

On to `O=C(Nc1cc(Cl)ccc1C(=O)N[C@H](C(=O)O)C1CCCCC1)Nc1c(Cl)cccc1Cl` [Example 156, (2S)({[4chloro2({[(2,6dichlorophenyl)amino]carbonyl}amino)phenyl]carbonyl}amino)(cyclohexyl)ethanoic acid], for which the IC50 under setting [2] amounted to 0.082 µM. The compound `Cc1cc(C)c(NC(=O)Nc2cc(F)ccc2C(=O)N[C@H](C(=O)O)[C@@H](C)OCc2ccccc2)c(C)c1` [Example 521, N-{[4-fluoro-2-({[(2,4,6-trimethylphenyl)amino]carbonyl}amino)phenyl]carbonyl}-O-(phenylmethyl)-L-threonine] registered a 50% inhibitory concentration (IC50) under setting [2] of 0.134 µM.

As for `NC(=O)C[C@H](NC(=O)c1cc2ccccc2cc1NC(=O)Nc1ccccc1Cl)C(=O)O` [Example 31, N-[3-({[(2-chlorophenyl)amino]carbonyl}amino)-2-naphthoyl]-L-asparagine], the IC50 under setting [2] came out at 11.4 µM. On the same count and under the same terms, the figure for `Cc1cccc(Cl)c1NC(=O)Nc1cc(F)c(F)cc1C(=O)N[C@@H](Cc1c[nH]c2ccccc12)C(=O)O` [Example 74, N-[2-({[(2-chloro-6-methylphenyl)amino]carbonyl}amino)-4,5-difluorobenzoyl]-L-tryptophan trifluoroacetate] is 6.58 µM. The compound `CCOc1ccc(-c2ccc(C(=O)N[C@H](C(=O)O)C3CCCCC3)c(NC(=O)Nc3c(C)cc(C)cc3C)c2)cc1` [Example 218, (2S)-Cyclohexyl({[4′-(ethyloxy)-3-({[(2,4,6-trimethylphenyl)amino]carbonyl}amino)-4-biphenylyl]carbonyl}amino)ethanoic acid] registered an IC50 under setting [1] of 0.007 µM. `Cc1cccc(Cl)c1NC(=O)Nc1cc2ccccc2cc1C(=O)NC(C(=O)O)C1CCCNC1` (centres unmarked) [Example 5, {[3-({[(2-chloro-6-methylphenyl)amino]carbonyl}amino)-2-naphthoyl]amino}(piperidin-3-yl)acetic acid trifluoroacetate] came in with an IC50 under setting [2] of 20.9 µM.

As to `O=C(Nc1sc(-c2ccc(OC(F)(F)F)cc2)cc1C(=O)O)Nc1c(Cl)cc(OC(F)(F)F)cc1Cl` [Example 428, 2-{[({2,6-dichloro-4-[(trifluoromethyl)oxy]phenyl}amino)carbonyl]amino}-5-{4-[(trifluoromethyl)oxy]phenyl}-3-thiophenecarboxylic acid], half-maximal inhibition under setting [2] (IC50) required 1.22 µM. Still for that read-out and setting: the figure for `COc1cc(NC(=O)Nc2c(C)cccc2C)c(C(=O)N[C@@H](Cc2c[nH]c3ccccc23)C(=O)O)cc1OC` [Example 82, N-[2-({[(2,6-dimethylphenyl)amino]carbonyl}amino)-4,5-dimethoxybenzoyl]-L-tryptophan trifluoroacetate] is 9.41 µM. `COC(=O)[C@@H](NC(=O)c1cc(C)sc1NC(=O)Nc1c(Cl)cccc1Cl)C1CCCCC1` [Example 389, methyl(2S)-cyclohexyl({[2-({[(2,6-dichlorophenyl)amino]carbonyl}amino)-5-methyl-3-thienyl]carbonyl}amino)ethanoate] returned an IC50 under setting [1] of 15.6 µM. The same measure, in the same setting: the figure for `Cc1cc(C)c(NC(=O)Nc2cc(-c3ccc(F)c(F)c3)ccc2C(=O)N[C@@H](CC(=O)O)C(=O)O)c(C)c1` [Example 375, N-{[3′,4′-difluoro-3-({[(2,4,6-trimethylphenyl)amino]carbonyl}amino)-4-biphenylyl]carbonyl}-L-aspartic acid] is 0.043 µM; for `COc1ccc(-c2ccc(C(=O)O)c(NC(=O)Nc3c(Cl)cc(OC(F)(F)F)cc3Cl)c2)cc1` [Example 381, 3-{[({2,6-dichloro-4-[(trifluoromethyl)oxy]phenyl}amino)carbonyl]amino}-4′-(methyloxy)-4-biphenylcarboxylic acid] it is 3.42 µM.

Under setting [2], `COc1ccc(-c2ccc(C(=O)N[C@H](C(=O)O)[C@@H](C)OC(C)(C)C)c(NC(=O)Nc3c(C)cc(C4CC4)cc3C)c2)cc1` [Example 532, N-{[3-({[(4-cyclopropyl-2,6-dimethylphenyl)amino]carbonyl}amino)-4′-(methyloxy)-4-biphenylyl]carbonyl}-O-(1,1-dimethylethyl)-L-threonine] showed an IC50 of 0.011 µM.

The compound `O=C(Nc1cc2ccccc2cc1C(=O)Nc1cscc1C(=O)O)Nc1c(Cl)cccc1Cl` [Example 497, 4-({[3-({[(2,6-dichlorophenyl)amino]carbonyl}amino)-2-naphthalenyl]carbonyl}amino)-3-thiophenecarboxylic acid] came in with an IC50 under setting [2] of 17.7 µM. The same measure, in the same setting: the value for `CC[C@H](C)[C@H](NC(=O)c1c(NC(=O)Nc2c(Cl)cccc2Cl)sc2c1CCCC2)C(=O)O` [Example 129, N-{[2-({[(2,6-dichlorophenyl)amino]carbonyl}amino)-4,5,6,7-tetrahydro-1-benzothien-3-yl]carbonyl}-L-isoleucine] was 7.97 µM; that for `Cc1cccc(Cl)c1NC(=O)Nc1cc2ccccc2cc1C(=O)N[C@@H](Cc1ccccc1)C(=O)O` [Example 62, N-[3-({[(2-chloro-6-methylphenyl)amino]carbonyl}amino)-2-naphthoyl]-L-phenylalanine] was 0.26 µM.

For the compound `COc1ccc(-c2cnc(C(=O)N[C@H](C(=O)O)[C@@H](C)OC(C)(C)C)c(NC(=O)Nc3c(C)cc(C)cc3C)c2)cc1` [Example 323, O-(1,1-dimethylethyl)-N-{[5-[4-(methyloxy)phenyl]-3-({[(2,4,6-trimethylphenyl)amino]carbonyl}amino)-2-pyridinyl]carbonyl}-L-threonine], the IC50 under setting [1] is 0.17 µM. Compound `CCc1cccc(CC)c1NC(=O)Nc1cc(Cl)ccc1C(=O)N[C@H](Cc1ccccc1F)C(=O)O` [Example 121, N-[4-chloro-2-({[(2,6-diethylphenyl)amino]carbonyl}amino)benzoyl]-2-fluoro-D-phenylalanine] showed an IC50 under setting [2] of 3.44 µM. The compound `O=C(Nc1cc2ccccc2cc1C(=O)NC1(C(=O)O)CCCCCCC1)Nc1c(Cl)cc(Cl)cc1Cl` [Example 303, 1-({[3-({[(2,4,6-trichlorophenyl)amino]carbonyl}amino)-2-naphthalenyl]carbonyl}amino)cyclooctanecarboxylic acid] had an IC50 under setting [1] of 0.057 µM. Take `Cc1cc(C2CC2)cc(C)c1NC(=O)Nc1cc(-c2cccc(F)c2)ccc1C(=O)N[C@H](C(=O)O)[C@@H](C)OC(C)(C)C` [Example 530, N-{[3-({[(4-Cyclopropyl-2,6-dimethylphenyl)amino]carbonyl}amino)-3′-fluoro-4-biphenylyl]carbonyl}-O-(1,1-dimethylethyl)-L-threonine]: under setting [2], the IC50 was determined as 0.021 µM. `COc1ccc(NC(=O)Nc2cc3ccccc3cc2C(=O)N[C@H](C(=O)O)C2CCCCC2)c(OC)c1` [Example 239, (2S)-[({3-[({[2,4-bis(methyloxy)phenyl]amino}carbonyl)amino]-2-naphthalenyl}carbonyl)amino](cyclohexyl)ethanoic acid] had an IC50 under setting [1] of 2.38 µM. The compound `O=C(O)C[C@H](NC(=O)c1cc2ccccc2cc1NC(=O)Nc1c(Cl)cccc1Cl)C(=O)O` [Example 148, N-{[3-({[(2,6-dichlorophenyl)amino]carbonyl}amino)-2-naphthalenyl]carbonyl}-L-aspartic acid] displayed an IC50 under setting [2] of 0.23 µM.

On to `O=C(O)C[C@H](NC(=O)c1cc2ccccc2cc1NC(=O)Nc1ccccc1Cl)C(=O)O` [Example 9, N-[3-({[(2-chlorophenyl)amino]carbonyl}amino)-2-naphthoyl]-L-aspartic acid], for which, under setting [2], half-maximal inhibition (IC50) was put at 2.78 µM.

For the origin of these results see patent publication US20070249670A1, “Glycogen Phosphorylase Inhibitor Compounds and Pharmaceutical Compositions Thereof” (SMITHKLINE BEECHAM CORPORATION, priority 2004, published 2007).
